# Results taken from patent publication US7297702B2, “Contraception method using competitive progesterone antagonists and novel compounds useful therein” (Schering Aktiengesellschaft, priority 2004, dated 2007).
# Several values for one entry are separate records, joined by “and”; a condition that tells them apart may be missing. Equal entries are not always repeated.
# Key:
# rat [1] = test: Dissociation factor: ovulation inhibition test versus implantation inhibition in the rat; assay type: in vivo; conditions: for peripherally selective effectiveness (endometrium versus hypophysial-ovarian axis): endometrial effect very greatly pronounced, at the same dose at most only a slight central effect; for Dissociation factor: ratio of ovulation-inhibiting dose and implantation inhibiting dose, rat, peroral administration
# Source text: Such competitive progesterone antagonists can also be designated as dissociated, since at a specific threshold dose, although changes of the endometrium are observed, ovulation (central effect) is not inhibited. The ratio of ovulation-inhibiting dose and implantation inhibiting dose (dissociation factor) (as determined in the rat after peroral administration) can be used as a measurement of the dissociation. This ratio varies from species to species but is at least about 30 or higher in a dissociated or competitive progesterone antagonist.
# Such competitive progesterone antagonists can also be designated as dissociated, since at a specific threshold dose, changes of the endometrium are observed, but the ovulation (central effect) is not inhibited. The ratio of ovulation-inhibiting and implantation inhibiting (dissociation factor) doses can be used as a measurement for the dissociation. It varies depending on the species and is about. 30 or more for a dissociated competitive progesterone antagonist (in the rat after peroral administration) to be used according to the invention.
# To determine the ovulation-inhibiting doses of competitive progesterone antagonists, the ovulation-inhibiting test described below is performed on the rat; the respective abortively effective doses follow from the known (e.g., U.S. Pat. No. 5,095,129) rat abortive test.
# Ovulation Inhibition Test on the Rat
# For detection of ovulation-inhibiting substances, the rat is well-suited insofar as it spontaneously ovulates and the cycle can easily be observed by means of vaginal smears. This makes it possible to control the course of the test also during the treatment phase.
# Female rats weighing 190-210 g, pro dosi 6 animals.
# The animals are kept in Macrolon cages in rooms with controlled exposure to light (10 hours of darkness: 14 hours of brightness), fed a standard diet (pelletized rat food) and tap water at will.
# The test substances are dissolved in benzyl benzoate/castor oil (1+9 v/v) and the daily dose is administered in a volume of 0.2 ml s.c.
# In the oral application, the test substance is suspended in a carrier liquid (85 mg of Myrj® in 100 ml of 0.9% w/v NaCl solution) and the daily dose is administered in a volume of 0.5 ml.
# Two cycles are observed before the beginning of the test by means of vaginal smears. Only animals with a regular 4-day cycle are used in the test. The assignment to the treatment groups takes place at random. Beginning in the metestrus, the test substance is administered over 4 days (day 1-4) and the cycle is further controlled.
# On day 4 (after the administration), animals, which have an estrus or metestrus at the time of the vaginal smear, are ovariectomized on one side under ether anesthesia. Crush preparations are prepared from the tubes and examined by microscope for the presence of egg cells. On day 5, all animals (intact and unilaterally ovariectomized) are killed with CO2 gas and the tubes are prepared and examined in the same way.
# In the individual dosage groups, the percentage of animals in which the ovulation was inhibited is determined.
# rat [2] = test: Implantation inhibition (antinidatory effectiveness) in the rat; assay type: in vivo
# [3] = Thymolysis test for antiglucocorticoidal effect; assay type: in vivo; conditions: thymolysis test (EP-A-0 283 428)
# Source text: This is seen from the thymolysis test for antiglucocorticoidal effect (EP-A-0 283 428).
# [4] = system: adult, female bonnet monkeys (Macaca radiata); test: Weekly s.c. Onapriston in bonnet monkeys: length of menstrual cycle and menstrual period; assay type: in vivo; conditions: for Length of MC, After-treatment Cycle / Length of MC, Treatment Cycle 1 / Length of MC, Treatment Cycle 2 / Length of MD, After-treatment Cycle / Length of MP, Treatment Cycle 1 / Length of MP, Treatment Cycle 2 / Length of MC, Pretreatment Cycle / Length of MP, Pretreatment Cycle: individual animals; for Length of MC, Pretreatment Cycle / Length of MP, Pretreatment Cycle: pretreatment cycle (baseline)
# Source text: (§1) The above-described use of competitive progesterone antagonists is evidenced by tests performed with Onapriston [11β-(4-dimethylaminophenyl)-17α-hydroxy-17β-(3-hydroxy-propyl)-13α-methyl-4,9-gonadien-3-one; EP-A-0129499], a typically competitive progesterone antagonist, on adult, female bonnet monkeys (Macaca radiata).
# [5] = system: adult, female bonnet monkeys (Macaca radiata); test: Weekly s.c. Onapriston in bonnet monkeys: estradiol and progesterone levels (RIA), folliculogenesis and ovulation; assay type: in vivo; conditions: 5 mg and 10 mg per animal s.c. weekly, 2 cycles
# Source text: as §1
# endometrium = test: Weekly s.c. Onapriston in bonnet monkeys: endometrial histology (biopsy day 20 of second cycle); assay type: in vivo, Macaca radiata; conditions: both treatment groups (5 mg and 10 mg weekly s.c.), after 7 administrations
# Source text: as §1
# women = test: Human Study 3: once-a-week oral onapristone; assay type: in vivo; conditions: once-a-week oral 0.25-50 mg over two cycles
# Protocol: Duration of the study: Evaluation of three cycles: pre-treatment, treatment and post-treatment cycles. • Regimen: 18 daily oral administration of 20 mg (group 1), 10 mg (group 2) and 5 mg (group 3) onapristone starting on day 1 of the cycle. c) Evaluation: • RIA, LH, FSH, E2 and progesterone and cortisol during the pre-treatment, treatment and post-treatment cycles. • Evaluation of endometrial biopsies and collection of the uterine fluid (by prevical) on day 16 and day 23 of the treatment cycle (see appendix for details) • Occurrence of menstrual bleeding. Human Study 3: Effects of once-a-week administration of onapristone on ovulation, endometrial morphology and biochemistry a) Objective:
# Groups of volunteers: […] (five treatment groups and a control group) of 8-10 women with ligated oviducts.
# Duration of the study: Evaluation of four cycles: pre-treatment, two treatment and post-treatment cycles.
# Once-a-week oral administration of 50 mg (group 1) 20 mg (group 2), 10 mg (group 3) 2 mg ([…]) and 0.25 mg (group 5), onapristone starting on day 1 of the cycle over the two cycles.
# RIA, LH, FSH, E2 and progesterone during the pre-treatment, treatment and post-treatment cycles.
# Evaluation of endometrial biopsies and collection of the uterine fluid on day 16 and day 23 of both treatment cycles (see appendix for details).
# Occurrence of menstrual bleeding and cycle abnormalities: […]
# humans = conditions: 50 mg, given during the late luteal phase; cited from earlier work
compound,measurement,setting,value
"11β,19-[4-(3-pyridinyl)-o-phenylene]-17β-hydroxy-17α-(3-hydroxyprop-1(Z)-enyl)-4-androsten-3-one [II]",peripherally selective effectiveness (endometrium versus hypophysial-ovarian axis),rat [1],surprisingly pronounced peripherally selective effectiveness
same,Dissociation factor,rat [1],>30
same,daily dose still completely implantation-inhibiting effective,rat [2],0.3 mg
same,antiglucocorticoidal effect,[3],not simultaneously antiglucocorticoidally effective
"11β,19-[4-(4-cyanophenyl)-o-phenylene]-17β-hydroxy-17α-(3-hydroxyprop-1(Z)-enyl)-4-androsten-3-one [I]",peripherally selective effectiveness (endometrium versus hypophysial-ovarian axis),rat [1],surprisingly pronounced peripherally selective effectiveness
same,Dissociation factor,rat [1],>100
same,daily dose still completely implantation-inhibiting effective,rat [2],0.1 mg
same,antiglucocorticoidal effect,[3],not simultaneously antiglucocorticoidally effective
"CN(C)c1ccc([C@H]2C[C@]3(C)[C@@H](CC[C@]3(O)CCCO)[C@@H]3CCC4=CC(=O)CCC4=C32)cc1 [Onapriston, 11β-(4-dimethylaminophenyl)-17α-hydroxy-17β-(3-hydroxy-propyl)-13α-methyl-4,9-gonadien-3-one]",length of the cycle and the menstrual period relative to the control group,"[4]; 5 mg and 10 mg per animal s.c. weekly, 2 cycles",not changed
same,"Length of MC, After-treatment Cycle","[4]; Group 2, 5 mg/week s.c.",27 day (2×) and 31 day
same,"Length of MC, Treatment Cycle 1","[4]; Group 2, 5 mg/week s.c.",24 days and 27 days and 26 days
same,"Length of MC, Treatment Cycle 2","[4]; Group 2, 5 mg/week s.c.",39 days and 29 days and 26 days
same,"Length of MD, After-treatment Cycle","[4]; Group 2, 5 mg/week s.c.",4 day (2×) and 3 day
same,"Length of MP, Treatment Cycle 1","[4]; Group 2, 5 mg/week s.c.",2 day and 1 day (2×)
same,"Length of MP, Treatment Cycle 2","[4]; Group 2, 5 mg/week s.c.",5 day and 1 day (2×)
same,"Length of MC, Pretreatment Cycle","[4]; Group 2, 5 mg/week s.c.",26 days and 28 days and 24 days
same,"Length of MP, Pretreatment Cycle","[4]; Group 2, 5 mg/week s.c.",1 day (2×) and 3 day
same,"Length of MC, After-treatment Cycle","[4]; Group 3, 10 mg/week s.c.",26 days and 48 days and 27 days
same,"Length of MC, Treatment Cycle 1","[4]; Group 3, 10 mg/week s.c.",25 days and 26 days and 28 days
same,"Length of MD, After-treatment Cycle","[4]; Group 3, 10 mg/week s.c.",4 days and 1 days and 3 days
same,"Length of MP, Treatment Cycle 1","[4]; Group 3, 10 mg/week s.c.",3 day and 1 day (2×)
same,"Length of MP, Treatment Cycle 2","[4]; Group 3, 10 mg/week s.c.",1 day (2×) and 2 day
same,"Length of MC, Treatment Cycle 2","[4]; Group 3, 10 mg/week s.c., * = 2 ovulation cycles, bleeding slight after the first cycle",53* day and 25 day and 28 day
same,"Length of MC, Pretreatment Cycle","[4]; Group 3, 10 mg/week s.c.",26 days and 24 days and 30 days
same,"Length of MP, Pretreatment Cycle","[4]; Group 3, 10 mg/week s.c.",4 days and 2 days and 3 days
same,folliculogenesis and ovulation (estradiol and progesterone levels),[5],occurred normally in all animals
same,endometrial histology in contrast to control animals,endometrium,atrophied
same,contraception reliability,women,high contraception reliability
same,control of the cycle compared to the control group,women,better control of the cycle
same,tolerance,women,high tolerance
same,effect on menstruation,humans,induce premature menstruation
"CC#C[C@]1(O)CC[C@H]2[C@@H]3CCC4=CC(=O)CCC4=C3[C@@H](c3ccc(N(C)C)cc3)C[C@@]21C [RU 486, 11β-[4-N,N-(dimethylamino)phenyl]-17β-hydroxy-17α-propinyl-estra-4,9(10)-dien-3-one]",Dissociation factor,rat [1],<10
